Measured values reported in PubChem BioAssay (NCI).
“And” between values parts separate entries of the source, which are not always exact repeats. Equal entries are not always repeated.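 Cells were grown in 96-well plates and exposed to each compound for 48 hours at five concentrations; endpoints were interpolated linearly between bracketing concentrations, or set to the highest concentration if not reached. The concentration for 50% growth inhibition is given as GI50. TGI denotes the concentration required for complete inhibition of growth.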

Experiments:
Test in all cases: NCI anticancer screen, dose series, 48 h
NCI-H23 lung = system: NCI-H23 lung
SF-295 CNS = system: SF-295 CNS
OVCAR-8 ovarian = system: OVCAR-8 ovarian
UACC-62 melanoma = system: UACC-62 melanoma
OVCAR-5 ovarian = system: OVCAR-5 ovarian
CCRF-CEM leukemia = system: CCRF-CEM leukemia
SNB-75 CNS = system: SNB-75 CNS
NCI-H460 lung = system: NCI-H460 lung
UO-31 renal = system: UO-31 renal
SN12C renal = system: SN12C renal
NCI-H522 lung = system: NCI-H522 lung
SF-268 CNS = system: SF-268 CNS
ACHN renal = system: ACHN renal
HCT-116 colon = system: HCT-116 colon
MCF7 breast = system: MCF7 breast

Row | Structure (SMILES) | TGI (NCI-H23 lung) | TGI (SF-295 CNS) | TGI (OVCAR-8 ovarian) | TGI (UACC-62 melanoma) | TGI (OVCAR-5 ovarian) | TGI (CCRF-CEM leukemia) | TGI (SNB-75 CNS) | TGI (NCI-H460 lung) | TGI (UO-31 renal) [µM] | TGI (SN12C renal) | TGI (NCI-H522 lung) | TGI (SF-268 CNS) | TGI (ACHN renal) | TGI (HCT-116 colon) | TGI (MCF7 breast) | GI50 (CCRF-CEM leukemia) [µM]
1 | OC1(c2ccc3ccccc3c2)c2c(c3ccccc3c3ccccc23)C2=NCCN21 (stereo not drawn) | 47.2 µM | 12.2 µM | > 30.3 µM | > 55.1 µM | > 83.7 µM | > 100 µM | 14.7 µM | > 40.5 µM | > 48.8 | > 63.6 µM | 24.8 µM | 29.2 µM | > 100 µM | 10.3 µM | 15.8 µM | 
2 | CC(C)(CN)SCc1ccccc1 |  | > 100 µM | > 100 µM | > 100 µM | > 100 µM | > 100 µM | > 100 µM | > 100 µM | > 100 | > 100 µM | > 100 µM | > 100 µM | > 100 µM | > 100 µM | > 100 µM | 
3 | c1ccc(CSC(SCc2ccccc2)c2ccc3c(c2)OCO3)cc1 | > 10 µM | > 10 µM | > 10 µM | > 10 µM |  | > 10 µM | > 10 µM | > 10 µM | > 10 | > 10 µM | > 10 µM | > 10 µM | > 10 µM | > 10 µM | > 10 µM | 
4 | CN(C)C(=O)Oc1ccc(C(=S)Nc2ccccc2)cc1Br | 57.3 µM | > 100 µM | 39.4 µM | 74.4 µM | > 100 µM | 48.6 µM |  | > 100 µM | > 100 |  | 52.4 µM | 23.5 µM | > 100 µM | > 100 µM | > 100 µM | 
5 | COc1nc(C)nc2c1ncn2Cc1ccccc1 | > 100 µM | > 100 µM | > 100 µM | > 100 µM | > 100 µM | > 100 µM | > 100 µM | > 100 µM |  | > 100 µM | > 100 µM | > 100 µM | > 100 µM | > 100 µM | > 100 µM | 
6 | Cn1nc(C(=O)N2CC(CCl)c3c2cc([N+](=O)[O-])c2ccccc32)cc1NC(=O)Nc1cc(C(=O)N2CC(CCl)c3c2cc([N+](=O)[O-])c2ccccc32)nn1C (stereo not drawn) | > 100 µM | > 100 µM |  | > 100 µM | > 100 µM |  | > 100 µM | > 100 µM | > 100 | > 100 µM | > 100 µM | > 100 µM | > 100 µM | > 100 µM | > 100 µM | 
7 | COc1cc2c(cc1OCCCCN1CCN(CCCCOc3cc4c(cc3OC)C(=O)N3CCC[C@H]3C=N4)CC1)N=C[C@@H]1CCCN1C2=O | 0.0914 µM | 0.242 µM | 18.6 µM | 0.0347 µM | 0.163 µM | 41.6 µM |  | > 32 µM | > 100 | 1.1 µM | 1.49 µM | 16.5 µM | > 100 µM | 22.5 µM | 45 µM | < 0.01
8 | Nc1cc(N)c(N=Nc2cccc3c(S(=O)(=O)O)cccc23)cc1N=Nc1cc([N+](=O)[O-])ccc1O | > 100 µM | > 100 µM | > 100 µM | 59.2 µM | 93.9 µM |  | > 100 µM | 74.1 µM | > 100 | > 100 µM | 61.4 µM | 54.8 µM | 78.1 µM | > 100 µM | > 100 µM | 
9 | O=C1/C(=C/c2ccc(Cl)cc2)Sc2scc(-c3cccc([N+](=O)[O-])c3)[n+]21 | 12.9 µM | 17.9 µM |  | 13.5 µM | 51.3 µM | 1.18 µM | 5.49 µM | 20.3 µM | 15.5 | 11.9 µM | 2.01 µM | 14.6 µM | 6.27 µM |  | > 40.7 µM | 
10 | O=C(Nc1ccc(S(=O)(=O)Nc2ncccn2)cc1)c1c2ccccc2nc2ccccc12 | > 100 µM | > 100 µM | > 100 µM | > 100 µM | > 100 µM |  | > 100 µM | > 100 µM | > 100 | > 100 µM | > 100 µM | > 100 µM | > 100 µM | > 100 µM | > 100 µM | 
11 | C=CCC1C2CCC(O[Si](C(C)C)(C(C)C)C(C)C)(C(C(=O)OC)C2)C1O (stereo not drawn) | > 100 µM | > 100 µM | > 100 µM | > 100 µM | > 100 µM | > 100 µM | > 100 µM | > 100 µM | > 100 | > 100 µM |  | > 100 µM | > 100 µM | 58.2 µM | > 100 µM | 
12 | O=C1C(NS(=O)(=O)c2ccccc2)=C(N(Cc2ccccc2)Cc2ccccc2)C(=O)c2ccccc21 | 73.2 µM | > 100 µM | > 100 µM | > 100 µM | > 100 µM | 77.4 µM | > 100 µM | > 100 µM | 51.3 | > 100 µM |  | > 100 µM | > 100 µM | > 100 µM | > 100 µM | 
13 | C(=N/NC1=NCCN1)/c1c2ccccc2c(/C=N\NC2=NCCN2)c2ccccc12 | 0.647 µM and 1.4 µM and 1.03 µM | 1.98 µM and 2.11 µM and 2.71 µM | 1.32 µM and 2.98 µM and 3.42 µM | 0.274 µM and 0.425 µM and 0.242 µM | 1.38 µM and 0.95 µM and 0.793 µM | 1.92 µM and 1.13 µM and 1.33 µM | 0.054 µM and 0.426 µM and 0.44 µM | 0.335 µM and 0.33 µM and 0.159 µM |  | 0.545 µM and 1.72 µM and 1.94 µM | 0.214 µM and 0.262 µM and 0.387 µM | 0.558 µM and 0.722 µM and 0.747 µM | 1.26 µM and 3.97 µM | 0.468 µM and 1.18 µM and 1.21 µM | 0.788 µM and 3.14 µM and 3.88 µM | 
14 | CCOC(=O)NC(=S)NC(C)c1ccccc1 (stereo not drawn) | > 100 µM | > 100 µM | > 100 µM | > 100 µM | > 100 µM | > 100 µM | > 100 µM |  | > 100 |  | > 100 µM | > 100 µM | > 100 µM | > 100 µM | > 100 µM | 
15 | O=C1c2c(ccc3c2CCCC3)CC1Cc1ccc2c(c1)CCCC2 (stereo not drawn) | > 100 µM | > 100 µM | > 100 µM | > 100 µM | > 100 µM | 59.7 µM | > 100 µM | > 100 µM | > 100 | > 100 µM |  | > 100 µM | > 100 µM | > 100 µM | > 100 µM | 
